# Test system: GFP-encoding measles virus
# Test: Measles virus replication, infected cells counted with PerkinElmer Ensight system (Part II)
# Conditions: 75 μg/mL, quadruplets
# Procedure: Vero-Slam cells were incubated with decreasing concentration of the solubilized test compounds. All concentrations were analyzed on three independent six-well plates or by independent six replicates on a black 96well plate (PerkinElmer). Cells were infected with GFP-encoding wild-type measles virus and incubated for two days. […] Part II: Two days after infection measles virus-infected cells and GFP expressing cells were directly counted using the PerkinElmer Ensight system with optical cell culture plates. The instrument was controlled by manual counting. Viral titers were calculated as infectious particles per mL.
# However, in contrast to the previous experiments, infected cells were counted with the PerkinElmer Ensight system, since this system allows to quantify changes in viral titers on single cell level.
# However, only non-toxic compound concentrations were applied.
# The cells were subsequently infected with GFP-encoding measles virus, and GFP expressing cells were quantified with the Perkin Elmer Ensight reader. All infections were performed in triplicate assays.
smiles,measurement,value
"C[C@@H]1O[C@@H](OC[C@H]2O[C@@H](Oc3cc4c(O)cc(O)cc4[o+]c3-c3cc(O)c(O)c(O)c3)[C@H](O)[C@@H](O)[C@@H]2O)[C@H](O)[C@H](O)[C@H]1O [D3R, delphinidin 3-rutinoside]",number of infected cells,reduced the number of infected cells

# From patent US12076357B2, “Preparations containing berry extracts for use in the prophylaxis and/or treatment of viral infections caused by Paramyxoviridae” (Evonik Operations GmbH, priority 2019, dated 2024)
